In patent publication US20130072430A1, “METHODS FOR TREATMENT OR PROPHYLAXIS OF KIDNEY OR LIVER DYSFUNCTION” (NPS PHARMACEUTICALS, INC., priority 2010, published 2013):

System: Human patients with short bowel syndrome
Experiment: Example 1: kidney diagnostic biomarkers (urea nitrogen, creatinine, GFR) in short bowel syndrome patients, every four weeks for 24 weeks
Format: in vivo
Set-up: CREATININE (RATE BLANKED) Change from Baseline, Median / GFR, Median / GFR Change from Baseline, Median / UREA NITROGEN, Median / UREA NITROGEN Change from Baseline, Median: unit not given here
Details: for CREATININE (RATE BLANKED), Median: unit assumed
Experimental: Human patients with short bowel syndrome were divided into three groups: a control group (16 total individuals) to receive placebo, an experimental group (35 total individuals) to receive teduglutide at 0.05 mg/kg/day throughout the study, and an experimental group (32 total individuals) to receive teduglutide at 0.1 mg/kg/day throughout the study. Patients were treated by subcutaneous injection of placebo or the appropriate dose of teduglutide. As individuals with short bowel syndrome are likely to experience associated liver and kidney disease, known biomarkers of liver and kidney function were monitored every four weeks, for 24 weeks. The liver biomarkers tested included total bilirubin, ALT and AST and ALP. The kidney biomarkers tested included urea nitrogen, creatinine and GFR. Before administration of placebo or teduglutide, diagnostic biomarker levels were tested to establish a baseline for each individual.
To visualize the effect of GLP-2 on the levels of the diagnostic biomarkers, the average change from baseline was calculated for the placebo and teduglutide treated groups for each visit after a baseline was established. The average change from baseline of each group is depicted in FIGS. […]. The numerical figures for each diaanostic biomarker at each time point are depicted in Table 1.
The raw data for this sorting is reproduced in Table 2 below.

SMILES: CC[C@H](C)[C@H](NC(=O)[C@H](Cc1ccccc1)NC(=O)[C@H](CC(=O)O)NC(=O)[C@H](CCCNC(=N)N)NC(=O)[C@H](C)NC(=O)[C@H](C)NC(=O)[C@H](CC(C)C)NC(=O)[C@H](CC(N)=O)NC(=O)[C@H](CC(=O)O)NC(=O)[C@H](CC(C)C)NC(=O)[C@@H](NC(=O)[C@@H](NC(=O)[C@H](CC(N)=O)NC(=O)[C@H](CCSC)NC(=O)[C@H](CCC(=O)O)NC(=O)[C@H](CC(=O)O)NC(=O)[C@H](CO)NC(=O)[C@H](Cc1ccccc1)NC(=O)[C@H](CO)NC(=O)CNC(=O)[C@H](CC(=O)O)NC(=O)CNC(=O)[C@@H](N)Cc1c[nH]cn1)[C@@H](C)O)[C@@H](C)CC)C(=O)N[C@@H](CC(N)=O)C(=O)N[C@@H](Cc1c[nH]c2ccccc12)C(=O)N[C@@H](CC(C)C)C(=O)N[C@H](C(=O)N[C@@H](CCC(N)=O)C(=O)N[C@H](C(=O)N[C@@H](CCCCN)C(=O)N[C@H](C(=O)N[C@H](C(=O)N[C@@H](CC(=O)O)C(=O)O)[C@@H](C)O)[C@@H](C)CC)[C@@H](C)O)[C@@H](C)CC [teduglutide]
- GFR Change from Baseline, Mean (SD) (0.05 mg/kg/day, DW24): 3.7 (12.81)
- GFR Change from Baseline, Median (0.05 mg/kg/day, DW24): 1.7
- GFR, Mean (SD) (0.05 mg/kg/day, DW24): 89.7 (41.28)
- GFR, Median (0.05 mg/kg/day, DW24): 78.1
- UREA NITROGEN Change from Baseline, Mean (SD) (0.05 mg/kg/day, DW24): −0.6 (2.02)
- UREA NITROGEN Change from Baseline, Median (0.05 mg/kg/day, DW24): −0.7
- UREA NITROGEN, Mean (SD) (0.05 mg/kg/day, DW24): 5.0 (1.88)
- UREA NITROGEN, Median (0.05 mg/kg/day, DW24): 4.9
- CREATININE (RATE BLANKED), Median (0.05 mg/kg/day, DW24): 80 µmol/L
- CREATININE (RATE BLANKED) Change from Baseline, Mean (SD) (0.10 mg/kg/day, DW4): −1.8 (10.49)
- CREATININE (RATE BLANKED) Change from Baseline, Median (0.10 mg/kg/day, DW4): −0.5
- CREATININE (RATE BLANKED), Mean (SD) (0.10 mg/kg/day, DW4): 81.0 (21.62)
- GFR Change from Baseline, Mean (SD) (0.10 mg/kg/day, DW4): 3.6 (11.81)
- GFR Change from Baseline, Median (0.10 mg/kg/day, DW4): 3.1
- GFR, Mean (SD) (0.10 mg/kg/day, DW4): 80.3 (25.98)
- GFR, Median (0.10 mg/kg/day, DW4): 75.6
- UREA NITROGEN Change from Baseline, Mean (SD) (0.10 mg/kg/day, DW4): 0.3 (1.22)
- UREA NITROGEN Change from Baseline, Median (0.10 mg/kg/day, DW4): 0.2
- UREA NITROGEN, Mean (SD) (0.10 mg/kg/day, DW4): 6.4 (2.19)
- UREA NITROGEN, Median (0.10 mg/kg/day, DW4): 6.3
- CREATININE (RATE BLANKED), Median (0.10 mg/kg/day, DW4): 83 µmol/L
- CREATININE (RATE BLANKED) Change from Baseline, Mean (SD) (0.10 mg/kg/day, DW8): 1.2 (10.40)
- CREATININE (RATE BLANKED) Change from Baseline, Median (0.10 mg/kg/day, DW8): 0.0
- CREATININE (RATE BLANKED), Mean (SD) (0.10 mg/kg/day, DW8): 84.2 (21.41)
- GFR Change from Baseline, Mean (SD) (0.10 mg/kg/day, DW8): 0.6 (10.87)
- GFR Change from Baseline, Median (0.10 mg/kg/day, DW8): 0.2
- GFR, Mean (SD) (0.10 mg/kg/day, DW8): 77.9 (25.63)
- GFR, Median (0.10 mg/kg/day, DW8): 76.9
- UREA NITROGEN Change from Baseline, Mean (SD) (0.10 mg/kg/day, DW8): 0.2 (1.20)
- UREA NITROGEN Change from Baseline, Median (0.10 mg/kg/day, DW8): 0.1
- UREA NITROGEN, Mean (SD) (0.10 mg/kg/day, DW8): 6.4 (2.00)
- UREA NITROGEN, Median (0.10 mg/kg/day, DW8): 6.4
- CREATININE (RATE BLANKED), Median (0.10 mg/kg/day, DW8): 86 µmol/L
- CREATININE (RATE BLANKED) Change from Baseline, Mean (SD) (0.10 mg/kg/day, DW12): 2.8 (12.77)
- CREATININE (RATE BLANKED) Change from Baseline, Median (0.10 mg/kg/day, DW12): 6.5
- CREATININE (RATE BLANKED), Mean (SD) (0.10 mg/kg/day, DW12): 86.4 (25.37)
- GFR Change from Baseline, Mean (SD) (0.10 mg/kg/day, DW12): 0.2 (15.54)
- GFR Change from Baseline, Median (0.10 mg/kg/day, DW12): −0.5
- GFR, Mean (SD) (0.10 mg/kg/day, DW12): 77.3 (25.57)
- GFR, Median (0.10 mg/kg/day, DW12): 68.7
- UREA NITROGEN Change from Baseline, Mean (SD) (0.10 mg/kg/day, DW12): 0.1 (1.47)
- UREA NITROGEN Change from Baseline, Median (0.10 mg/kg/day, DW12): 0.0
- UREA NITROGEN, Mean (SD) (0.10 mg/kg/day, DW12): 6.3 (2.08)
- UREA NITROGEN, Median (0.10 mg/kg/day, DW12): 5.9
- CREATININE (RATE BLANKED), Median (0.10 mg/kg/day, DW12): 84.5 µmol/L
- CREATININE (RATE BLANKED) Change from Baseline, Mean (SD) (0.10 mg/kg/day, DW16): 0.6 (11.86)
- CREATININE (RATE BLANKED) Change from Baseline, Median (0.10 mg/kg/day, DW16): 0.0
- CREATININE (RATE BLANKED), Mean (SD) (0.10 mg/kg/day, DW16): 84.2 (21.85)
- GFR Change from Baseline, Mean (SD) (0.10 mg/kg/day, DW16): 1.1 (13.73)
- GFR Change from Baseline, Median (0.10 mg/kg/day, DW16): 1.1
- GFR, Mean (SD) (0.10 mg/kg/day, DW16): 78.3 (23.12)
- GFR, Median (0.10 mg/kg/day, DW16): 77.5
- UREA NITROGEN Change from Baseline, Mean (SD) (0.10 mg/kg/day, DW16): −0.2 (1.47)
- UREA NITROGEN Change from Baseline, Median (0.10 mg/kg/day, DW16): 0.0
- UREA NITROGEN, Mean (SD) (0.10 mg/kg/day, DW16): 6.0 (1.86)
- UREA NITROGEN, Median (0.10 mg/kg/day, DW16): 6.1
- CREATININE (RATE BLANKED), Median (0.10 mg/kg/day, DW16): 87.5 µmol/L
- CREATININE (RATE BLANKED) Change from Baseline, Mean (SD) (0.10 mg/kg/day, DW20): 2.6 (12.05)
- CREATININE (RATE BLANKED) Change from Baseline, Median (0.10 mg/kg/day, DW20): 0.0
- CREATININE (RATE BLANKED), Mean (SD) (0.10 mg/kg/day, DW20): 86.6 (20.44)
- GFR Change from Baseline, Mean (SD) (0.10 mg/kg/day, DW20): −0.6 (16.16)
- GFR Change from Baseline, Median (0.10 mg/kg/day, DW20): 1.5
- GFR, Mean (SD) (0.10 mg/kg/day, DW20): 77.3 (26.45)
